How the values were obtained:
[1] = tested on: adult mice; assay: Ozone-exposure model, pre-treatment of adult mice; assay type: in vivo, mouse; details: pre-treatment prior to ozone-exposure
[2] = tested on: BALB/c mice; assay: OVA-induced AHR in adult mice treated with glycolipid at 2 weeks of age; assay type: in vivo, mouse; details: 2 wk old mice treated i.p. (α-C-GalCer 5 μg, α-GalCer 2 μg, PI57 50 or 100 μg, PBS30 50 μg); AHR induced 6 wks (42 days) later
Protocol: In FIGS. 6A-6B, two-week-old BALB/c mice (n=6-8/group) (6A) or Tbet^−/− mice (6B) (n=4-6 per group) received 5 μg […] (cGal), 2 μg α-GalCer, or vehicle. After OVA sensitization and challenge, AHR was measured on day 44. In FIG. 6C, donor mice were treated with α-C-GalCer (5 μg) or vehicle i.p. NKT cells served as donors, as in FIG. 4A (n=4 per group). Lung resistance (left) and cell counts in BAL (right) were assessed. […] In FIG. 6E, mice received PI57 (50 μg), α-GalCer (2 μg), or vehicle i.p., and lungs were examined 1 or 14 days later for CD4 and CD8 expression. In FIG. 6F, absolute numbers of CD4^+ NKT and DN NKT subsets from 6E were assessed. In FIG. 6G, BALB/c mice (n=5-8/group) received PI57 or vehicle i.p. Lung resistance (left) and BAL cells (right) were assessed. In FIG. 6H, BALB/c mice treated with PI57 (50 μg), PBS30 (Sphingomonas glycolipid) (50 μg), or vehicle i.p. were assessed for AHR as in 6G. In FIG. 6I, donor mice were treated with PI57 (50 μg) or vehicle i.p. NKT cells served as donors as in FIG. 4A. Lung resistance (left) and BAL cells (right) were assessed (n=4 per group). […] Data represent 2-3 independent experiments. *P<0.05, #P<0.05, ***P<0.001 versus vehicle-OVA (6C, 6G, and 6I), DN NKT saline (6F), and CD4^+ NKT saline (6F).
Induction of AHR and measurement of airway responsiveness in the OVA model.
To induce AHR, BALB/c mice were sensitized with 100 μg of OVA (Sigma-Aldrich) in alum administered i.p (on day 0). After sensitization, mice were exposed to intranasal antigen (50 μg OVA/day) or normal saline for 1 day (day 7; single dose challenge protocol), or for 3 consecutive days (days 7, 8, 9). AHR was assessed on the day after last OVA-challenge. Control mice received i.p. injection of PBS and intranasal administrations of normal saline.

[3] = tested on: OVA-sensitized BALB/c mice; assay: Adoptive transfer of NKT cells from glycolipid-treated mice into OVA-sensitized BALB/c recipients (AHR, BAL); assay type: in vivo, mouse; details: OVA-sensitized WT recipients
[4] = tested on: murine NKT cell lines; assay: Mouse NKT cell lines cocultured with BM-derived DCs, cytokine ELISA; assay type: cell-based; details: 48 hours
Protocol: In FIG. 7A, NKT cell lines were cocultured with BM-derived DCs (BMDCs) and α-GalCer (100 ng/ml), PI57 (10 μg/ml), or vehicle for 48 hours, with or without pre-incubation with anti-CD1d (10 μg/ml). IFN-γ was measured by ELISA. In FIG. 7B, murine NKT cell lines were cocultured as in 7A with BMDCs from WT, Cd1d^−/−, Myd88^−/−, or Trif^−/− mice. Cells were treated with α-GalCer (100 ng/ml), PI57 (2.5, 5, or 10 μg/ml), PBS30 (1, 2.5, or 5 μg/ml), or vehicle for 48 hours. IFN-γ and IL-4 were measured by ELISA. […] In FIG. 7D, mouse NKT cell lines were stained with PE-labeled CD1d tetramers of PI57 or α-GalCer at 4° C. for 45 minutes or 37° C. for 25 minutes, and with anti-TCRβ-APC antibody. Top: Lymphocytes were gated in the FSC/SSC window. Bottom: Percentage of CD1d tetramer+ cells. […] In FIG. 7G, CD1d Fc-coated Maxisorp plates were loaded with lipid and cultured with 5×10^4 NKT cells. IFN-γ was analyzed by ELISA after 24 hours. Data represent 3 or 5 independent experiments.
To establish mouse NKT cell lines, NKT cells were purified by a two-step sorting strategy using MACS. Spleen cells from BALB/c or BALB/c Vα14Jα18 Tg mice were depleted of T cells, B cells, granulocytes, macrophages and DCs by AutoMacs, then stained with PE conjugated-CD1d tetramer and FITC conjugated-anti-TCRβ mAb, and sorted using a MoFlo cell sorter (Dako). The purity of the sorted cells was >99%. To propagate the cells, sorted NKT cells were cultured in 96-well flat-bottom plates (1×10^5 cells/well) with 5×10^3 bone-marrow derived DC in the presence of murine IL-15 (Pepro Tech). Cells were subcultured and restimulated with fresh DCs once a week.
Mouse or human IL-4 and IFN-γ levels were measured by ELISA, as previously described (20). Mean values of triplicate cultures were shown. Data are representative of two or three independent experiments.

[5] = tested on: T-bet−/− mice; assay: OVA-induced AHR in T-bet−/− mice treated with glycolipid at 2 weeks of age; assay type: in vivo, mouse; details: 2 wk old T-bet−/− mice; α-C-GalCer 5 μg or PI57 50 μg; AHR measured on day 44
Protocol: In FIGS. 6A-6B, two-week-old BALB/c mice (n=6-8/group) (6A) or Tbet^−/− mice (6B) (n=4-6 per group) received 5 μg […] (cGal), 2 μg α-GalCer, or vehicle. After OVA sensitization and challenge, AHR was measured on day 44. In FIG. 6C, donor mice were treated with α-C-GalCer (5 μg) or vehicle i.p. NKT cells served as donors, as in FIG. 4A (n=4 per group). Lung resistance (left) and cell counts in BAL (right) were assessed. […] In FIG. 6E, mice received PI57 (50 μg), α-GalCer (2 μg), or vehicle i.p., and lungs were examined 1 or 14 days later for CD4 and CD8 expression. In FIG. 6F, absolute numbers of CD4^+ NKT and DN NKT subsets from 6E were assessed. In FIG. 6G, BALB/c mice (n=5-8/group) received PI57 or vehicle i.p. Lung resistance (left) and BAL cells (right) were assessed. In FIG. 6H, BALB/c mice treated with PI57 (50 μg), PBS30 (Sphingomonas glycolipid) (50 μg), or vehicle i.p. were assessed for AHR as in 6G. […] Lung resistance (left) and BAL cells (right) were assessed (n=4 per group). […]
In FIG. 10, NKT cells from α-GalCer or vehicle-treated mice were adoptively transferred to OVA-sensitized BALB/c recipients. AHR was measured after OVA challenge. […] After sensitization and challenge with OVA, AHR was measured on day 44. […]
To induce AHR, BALB/c mice were sensitized with 100 μg of OVA (Sigma-Aldrich) in alum administered i.p (on day 0). […] AHR was assessed on the day after last OVA-challenge. […]

CCCCCCCCCCCCCC(=O)OC[C@H]1O[C@H](O[C@H]2CC[C@@]3(C)C(=CC[C@H]4[C@@H]5CC[C@H]([C@H](C)CCCC(C)C)[C@@]5(C)CC[C@@H]43)C2)[C@H](O)[C@@H](O)[C@@H]1O [PI57, Cholesteryl 6-O-tetradecanoyl-α-D-glucopyranoside]
airway hyperreactivity after ozone exposure [1]: inhibit or suppress airway hyperreactivity | lung inflammation after ozone exposure [1]: inhibit or suppress airway hyperreactivity and lung inflammation | protection against development of OVA-induced AHR (lung resistance) [2]: protected the mice from the development of OVA-induced AHR | airway inflammation (BAL cells, lung sections) in recipients of NKT cells from glycolipid-treated donors ([3]; donors treated i.p. at 2 wk (α-C-GalCer 5 μg, PI57 50 μg)): suppressed AHR and airway inflammation | AHR in recipients of NKT cells from glycolipid-treated donors ([3]; donors treated i.p. at 2 wk (α-C-GalCer 5 μg, PI57 50 μg, or α-GalCer), NKT cells harvested 6 wks later): suppressed AHR | cytokine production with DCs from CD1d−/− mice ([4]; BMDCs from Cd1d−/− mice): failed to support PI57 induced cytokine production | cytokine production with DCs from MyD88−/− or Tri−/− mice ([4]; BMDCs from Myd88−/− or Trif−/− mice): induced cytokine production | IFN-γ production by NKT cell lines + dendritic cells ([4]; PI57 10 μg/ml, BMDCs): induced the production of IFN-γ in a CD1d-restricted manner | cytokine (IFN-γ) production after pre-incubation with anti-CD1d mAb ([4]; PI57 10 μg/ml, anti-CD1d 10 μg/ml): blocked | IFN-γ and IL-4 production compared to PBS30 or α-GalCer ([4]; WT BMDCs, PI57 2.5, 5 or 10 μg/ml): induced IFN-γ and less IL-4 | protection against OVA-induced AHR in T-bet−/− mice [5]: did not protect against subsequent OVA-induced AHR

Reference: patent US9657046B2, “Methods for the treatment and prevention of inflammatory diseases” (Children's Medical Center Corporation, priority 2010, dated 2017)
